According to patent US11000033B2, “Ketone or oxime compound, and herbicide” (NISSAN CHEMICAL CORPORATION, priority 2014, dated 2021):

How the values were obtained:
Format in all cases: in vivo
rapeseed [1] = experiment: Test Example 5: effect on crop by foliage application, plastic box (symbol g); settings: 320 g/ha, 3 weeks after application
Method in brief: (§1)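 Box culture: sterile diluvial soil, seeds spot-sown, ~1.5 cm cover, raised under glass at 25–30° C.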

Abutilon theophrasti = experiment: Test Example 5: herbicidal effect by foliage application, plastic box (symbol M); settings: 320 g/ha, 3 weeks after application
Method in brief: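 Visual herbicidal score, taken three weeks post-application, of seedlings sprayed on the foliage with water-diluted emulsion at a predetermined amount; plants were 14 days old, greenhouse-raised at 25° C. to 30° C.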

beet = experiment: Test Example 5: effect on crop by foliage application, plastic box (symbol f); settings: 320 g/ha, 3 weeks after application
Method in brief: as §1

rapeseed [2] = experiment: Test Example 4: effect on crop by soil treatment (symbol g); settings: application herbicide amount 320 g/ha
Method in brief: (§2)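 Seeds were sown in spots on sterilized diluvial soil in a plastic box and covered with about 1.5 cm of soil. Plants were then grown in a greenhouse at 25° C. to 30° C.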

Lolium multiflorum Lam. = experiment: Test Example 4: herbicidal effect by soil treatment (symbol K); settings: application herbicide amount 320 g/ha
Method in brief: (§3)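 Seeds were sown in sterilized diluvial soil, covered with about 1.5 cm of soil, and the soil surface was sprayed with a water-diluted emulsion of the compound at a predetermined rate. Plants grew in a greenhouse at 25° C. to 30° C.; effects were scored visually 3 weeks after application.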

[3] = system: Echinochloa oryzacola Vasing.; experiment: Test Example 2: herbicidal activity, application during weed generation in submerged conditions (symbol A); settings: Table 23; application herbicide amount 320 g/ha; grade 0-5 by criteria of Test Example 1
Method in brief: (§4)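 Steps: fill pots with alluvial soil; add water to 4 cm depth; co-sow the three weeds; grow at 25° C. to 30° C. under glass; at 1–2 leaves, dose the floodwater with diluted emulsion; rate damage visually after 3 weeks.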

Amaranthus retroflexus = experiment: Test Example 4: herbicidal effect by soil treatment (symbol N); settings: application herbicide amount 320 g/ha
Method in brief: as §3

wheat [4] = experiment: Test Example 5: effect on crop by foliage application, plastic box (symbol e); settings: 320 g/ha, 3 weeks after application
Method in brief: as §1

Avena fatua = experiment: Test Example 4: herbicidal effect by soil treatment (symbol I); settings: application herbicide amount 320 g/ha
Method in brief: as §3

soybean = experiment: Test Example 4: effect on crop by soil treatment (symbol d); settings: application herbicide amount 320 g/ha
Method in brief: as §2

Scirpus juncoides = experiment: Test Example 2: herbicidal activity, application during weed generation in submerged conditions (symbol B); settings: Table 23; application herbicide amount 320 g/ha; grade 0-5 by criteria of Test Example 1
Method in brief: as §4

[5] = system: directly sowed rice plant; experiment: Test Example 3: effect on crop by foliage application, Wagner pot (symbol b); settings: application herbicide amount 320 g/ha
Method in brief: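 Wagner pot (1/10000 are), alluvial soil, submerged 0.1–0.5 cm; sown E. crus-galli var. crus-galli, L. chinensis, C. difformis, rice; greenhouse 25–30 °C.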

wheat [6] = experiment: Test Example 4: effect on crop by soil treatment (symbol e); settings: application herbicide amount 320 g/ha
Method in brief: as §2

rice = experiment: Test Example 4: effect on crop by soil treatment (symbol b); settings: application herbicide amount 320 g/ha
Method in brief: as §2

rice plant = experiment: Test Example 5: effect on crop by foliage application, plastic box (symbol b); settings: 320 g/ha, 3 weeks after application
Method in brief: as §1

Structure (SMILES) | g: rapeseed, effect on crop (criteria of Test Example 1) (rapeseed [1]) | M: Abutilon theophrasti, herbicidal effect (criteria of Test Example 1) (Abutilon theophrasti) | f: beet, effect on crop (criteria of Test Example 1) (beet) | Effect on crop grade, g: rapeseed (rapeseed [2]) | Herbicidal effect grade, K: Lolium multiflorum Lam. (Lolium multiflorum Lam.) | Herbicidal effect grade, A: Echinochloa oryzacola Vasing. [3] | Herbicidal effect grade, N: Amaranthus retroflexus (Amaranthus retroflexus) | e: wheat, effect on crop (criteria of Test Example 1) (wheat [4]) | Herbicidal effect grade, I: Avena fatua (Avena fatua) | Effect on crop grade, d: soybean (soybean) | Herbicidal effect grade, B: Scirpus juncoides (Scirpus juncoides) | effect on crop b (directly sowed rice plant), grade 0-5 [5] | Effect on crop grade, e: wheat (wheat [6]) | Effect on crop grade, b: directly sowed rice plant (rice) | b: directly sowed rice plant, effect on crop (criteria of Test Example 1) (rice plant)
CON=C(C)CC1CC(O)=C(c2c(F)cc(C)cc2OC)C1=O (stereo not drawn) [6-108] | 5 (Herbicidal ratio of 90% or more (almost completely withered)) | 5 (Herbicidal ratio of 90% or more (almost completely withered)) | 0 (Herbicidal ratio of 5% or lower (almost no effect)) | 4 (Herbicidal ratio of 70% or higher and lower than 90%) | 5 (Herbicidal ratio of 90% or more (almost completely withered)) | 4 (Herbicidal ratio of 70% or higher and lower than 90%) | 4 (Herbicidal ratio of 70% or higher and lower than 90%) | 3 (Herbicidal ratio of 40% or higher and lower than 70%) | 3 (Herbicidal ratio of 40% or higher and lower than 70%) | 0 (Herbicidal ratio of 5% or lower (almost no effect)) | 1 (Herbicidal ratio of 5% or higher and lower than 20%) | 5 (Herbicidal ratio of 90% or more (almost completely withered)) | 3 (Herbicidal ratio of 40% or higher and lower than 70%) | 5 (Herbicidal ratio of 90% or more (almost completely withered)) | 5 (Herbicidal ratio of 90% or more (almost completely withered))
CON=C(C)CC1CC(OC(=O)N(C)C)=C(c2c(C)cc(C)cc2OC)C1=O (stereo not drawn) [6-109] | 4 (Herbicidal ratio of 70% or higher and lower than 90%) | 4 (Herbicidal ratio of 70% or higher and lower than 90%) | 0 (Herbicidal ratio of 5% or lower (almost no effect)) | 0 (Herbicidal ratio of 5% or lower (almost no effect)) | 5 (Herbicidal ratio of 90% or more (almost completely withered)) | 5 (Herbicidal ratio of 90% or more (almost completely withered)) | 0 (Herbicidal ratio of 5% or lower (almost no effect)) | 4 (Herbicidal ratio of 70% or higher and lower than 90%) | 0 (Herbicidal ratio of 5% or lower (almost no effect)) | 0 (Herbicidal ratio of 5% or lower (almost no effect)) | 2 (Herbicidal ratio of 20% or higher and lower than 40%) | 5 (Herbicidal ratio of 90% or more (almost completely withered)) | 0 (Herbicidal ratio of 5% or lower (almost no effect)) | 1 (Herbicidal ratio of 5% or higher and lower than 20%) | 5 (Herbicidal ratio of 90% or more (almost completely withered))
CON=C(C)CC1CC(OC(=O)N2CCCC2)=C(c2c(C)cc(C)cc2OC)C1=O (stereo not drawn) [6-110] | 4 (Herbicidal ratio of 70% or higher and lower than 90%) | 4 (Herbicidal ratio of 70% or higher and lower than 90%) | 0 (Herbicidal ratio of 5% or lower (almost no effect)) | 0 (Herbicidal ratio of 5% or lower (almost no effect)) | 3 (Herbicidal ratio of 40% or higher and lower than 70%) | 5 (Herbicidal ratio of 90% or more (almost completely withered)) | 0 (Herbicidal ratio of 5% or lower (almost no effect)) | 4 (Herbicidal ratio of 70% or higher and lower than 90%) | 0 (Herbicidal ratio of 5% or lower (almost no effect)) | 0 (Herbicidal ratio of 5% or lower (almost no effect)) | 1 (Herbicidal ratio of 5% or higher and lower than 20%) | 5 (Herbicidal ratio of 90% or more (almost completely withered)) | 0 (Herbicidal ratio of 5% or lower (almost no effect)) | 0 (Herbicidal ratio of 5% or lower (almost no effect)) | 5 (Herbicidal ratio of 90% or more (almost completely withered))
CON=C(C)CC1CC(OC(=O)N2CCCCC2)=C(c2c(C)cc(C)cc2OC)C1=O (stereo not drawn) [6-111] | 4 (Herbicidal ratio of 70% or higher and lower than 90%) | 2 (Herbicidal ratio of 20% or higher and lower than 40%) | 0 (Herbicidal ratio of 5% or lower (almost no effect)) | 0 (Herbicidal ratio of 5% or lower (almost no effect)) | 5 (Herbicidal ratio of 90% or more (almost completely withered)) | 5 (Herbicidal ratio of 90% or more (almost completely withered)) | 0 (Herbicidal ratio of 5% or lower (almost no effect)) | 4 (Herbicidal ratio of 70% or higher and lower than 90%) | 0 (Herbicidal ratio of 5% or lower (almost no effect)) | 0 (Herbicidal ratio of 5% or lower (almost no effect)) | 3 (Herbicidal ratio of 40% or higher and lower than 70%) | 5 (Herbicidal ratio of 90% or more (almost completely withered)) | 0 (Herbicidal ratio of 5% or lower (almost no effect)) | 1 (Herbicidal ratio of 5% or higher and lower than 20%) | 5 (Herbicidal ratio of 90% or more (almost completely withered))
CON=C(C)CC1CC(O)=C(c2c(C)cccc2C)C1=O (stereo not drawn) [6-112] | 4 (Herbicidal ratio of 70% or higher and lower than 90%) | 4 (Herbicidal ratio of 70% or higher and lower than 90%) | 0 (Herbicidal ratio of 5% or lower (almost no effect)) | 0 (Herbicidal ratio of 5% or lower (almost no effect)) | 5 (Herbicidal ratio of 90% or more (almost completely withered)) | 3 (Herbicidal ratio of 40% or higher and lower than 70%) | 1 (Herbicidal ratio of 5% or higher and lower than 20%) | 4 (Herbicidal ratio of 70% or higher and lower than 90%) | 1 (Herbicidal ratio of 5% or higher and lower than 20%) | 0 (Herbicidal ratio of 5% or lower (almost no effect)) | 0 (Herbicidal ratio of 5% or lower (almost no effect)) | 5 (Herbicidal ratio of 90% or more (almost completely withered)) | 3 (Herbicidal ratio of 40% or higher and lower than 70%) | 5 (Herbicidal ratio of 90% or more (almost completely withered)) | 5 (Herbicidal ratio of 90% or more (almost completely withered))
